Experimental data as given in patent publication US4443607A, “1(2H)-Isoquinolone compounds and acid addition salts thereof” (priority 1981, dated 1984).
Values joined by “and” are separate entries in the source; they are usually repeats but may differ in a detail not shown here. Equal values may be shown once. Where a name gives a salt, the structure may show the parent alone.

Tests used:
[1] = tested on: blood flow in stomach mucous membrane; assay: Recovery activity on blood flow decrease in stomach mucous membrane by blood drawing; assay type: in vivo, Wistar male rats; conditions: 10 mg/kg intravenous
Method: Wistar male rats (body weight, 250 to 280 g) fasted for 24 hours and the blood flow in stomach mucous membrane was determined by the aminopyrin clearance method as described above under urethane anesthesia. After determination of blood flow, a blood sample was drawn in an amount equivalent to 3% of the body weight and, 5 minutes thereafter, the blood sample was reinstated. The blood flow was then determined at an interval of 15 minutes. The test compound was administered intravenously 15 minutes after the blood drawing.

stress ulcer [2] = assay: Stress Ulcer (2), fasted rats in stress cage dipped in water; assay type: in vivo, Wistar male rats; conditions: for Percent Inhibition / Ulcerous Index: 25 mg/kg oral, fasted 18 h; for Ulcerous Index: 7 h water immersion at 23° C., 7 rats, mean ± SD
Method: The test compound was administered orally to Wistar male rats (body weight, 180 to 200 g) which fasted for 18 hours before testing. 30 minutes thereafter, stress was loaded to the rats in a stress cage by dipping the cage into water at 23° C. to the level of the xiphisternum of rats. After leaving the rats in water for 7 hours, the rats were sacrificed and the stomach was extracted. The stomach was then worked up in the same manner as above to determine the ulcerous index.

gastric secretion = assay: Gastric secretion inhibitory activity in pylorus-ligated rats; assay type: in vivo, Wistar male rats; conditions: for Percent Inhibition (gastric juice) / Percent Inhibition (output secretion) / Amount of Gastric Juice / Amount of Output Secretion: 25 mg/kg into duodenum, 5 h; for Amount of Gastric Juice / Amount of Output Secretion: 10 rats, mean ± SD
Method: Five hours after the administration, the rats were sacrificed and gastric juice was collected. The volume and the pH value of the gastric juice and the degree of acid secretion were then determined.

blood pressure = assay: Anti-hypertensive activity in anesthetized cats; assay type: in vivo; conditions: 5 to 10 mg/kg via femoral vein; urethane anesthesia
Method: Cats weighing 3 to 5 kg were anesthetized by intraperitoneal administration of urethane at a dose of 1.5 g/kg. The test compound was administered through a catheter into a femoral vein and the blood pressure was determined by a pressure transducer through a catheter inserted into the femoral artery.

stress ulcer [3] = assay: Stress Ulcer (1), water-dipping restriction stress, non-fasted rats tied with steel wire; assay type: in vivo, Wistar male rats; conditions: 50 mg/kg oral
Method: The test compound was administered orally to Wistar male rats (body weight, 200 to 230 g) and 30 minutes thereafter the rats were tied up with a steel wire and dipped in water at 23° C. in a tank to the level of the xiphisternum of rats. After leaving the rats in water for 7 hours, the rats were sacrificed and the stomach was extracted. 10 ml of a 1% formalin solution was injected into the stomach cavity and the stomach was dipped in a 1% formalin solution for 15 minutes to semi-harden the stomach.

[4] = tested on: stomach mucous membrane blood flow; assay: Blood flow increasing activity on stomach mucous membrane (aminopyrin clearance method); assay type: in vivo, Wistar male rats; conditions: 3 mg/kg intravenous
aspirin-induced ulcer = assay: Aspirin Ulcer in pylorus-ligated rats; assay type: in vivo, Wistar male rats; conditions: for Percent Inhibition / Ulcerous Index: aspirin 100 mg/kg oral; for Ulcerous Index: mean ± SE
Method: The pylorus of Wistar male rats (body weight, 230 to 250 g) which fasted for 24 hours was ligated and, immediately thereafter, the test compound was administered into the duodenum. 15 hours thereafter, acetylsalicylic acid (Aspirin) was administered orally at a dose of 100 mg/kg. Seven hours after administration of acetylsalicylic acid, the rats were sacrificed and the gastric juice was collected. the stomach was then worked up in the same manner as above to determine the ulcerous index.

Compound	Percent Inhibition (stress ulcer [2])	Ulcerous Index (stress ulcer [2])	Percent Inhibition (gastric juice) (gastric secretion)	Percent Inhibition (output secretion) (gastric secretion)	Amount of Gastric Juice (gastric secretion)	Amount of Output Secretion (gastric secretion)	duration of blood pressure lowering activity (blood pressure)	inhibition of ulcer generation (in words) (stress ulcer [3])	other results
CC(N)Cn1cc(-c2ccccc2)c2ccccc2c1=O.O=C(O)/C=C\C(=O)O (stereo not shown) [Compound C, 2-(2-aminopropyl)-4-phenyl-1(2H)-isoquinolone maleate]	52.8%	14.6 ± 8.70 mm	54.2%	56.3%	1.54 ± 0.58 mL	126.0 ± 40.42 μ Eq.	–	–	recovery activity on blood flow decrease (in words) [1]: significant recovery activity on blood flow decrease in stomach mucous membrane by blood drawing; Blood Flow in Mucous Membrane, 15 min. ([1]; 15 min., 3 rats, mean ± SD): 88.4 ± 36.9%; Blood Flow in Mucous Membrane, 30 min. ([1]; 30 min., 3 rats, mean ± SD): 92.7 ± 23.5%; Blood Flow in Mucous Membrane, 45 min. ([1]; 45 min., 3 rats, mean ± SD): 98.2 ± 10.2%; Blood Flow in Mucous Membrane, 60 min. ([1]; 60 min., 3 rats, mean ± SD): 101.4 ± 8.8%; Blood Flow in Mucous Membrane, 0 ([1]; time 0 (baseline), 3 rats): 100%; stress ulcer inhibitory activity (in words) (stress ulcer [2]; compared with propantheline bromide): substantially equivalent to that of propantheline bromide; gastric secretion inhibitory activity (in words) (gastric secretion; compared with propantheline bromide and Cimetidine): substantially equivalent to that of propantheline bromide but higher than that of Cimetidine
CC(C)[N+](C)(CCOC(=O)C1c2ccccc2Oc2ccccc21)C(C)C [Propantheline Bromide]	51.9%	14.9 ± 10.67 mm	56.5%	58.8%	1.46 ± 0.63 mL	118.8 ± 63.51 μ Eq.	–	–	–
C=CCN(CC=C)CC(C)Cn1cc(-c2ccccc2)c2ccccc2c1=O (stereo not shown) [Compound B, 2-(3-N,N-diallylamino-2-methylpropyl)-4-phenyl-1(2H)-isoquinolone hydrochloride]	–	–	–	–	–	–	more than 2 hours	inhibit the ulcer generation caused by water-dipping restriction stress	–
C=CCN(CC=C)C(C)Cn1cc(-c2ccccc2)c2ccccc2c1=O (stereo not shown) [Compound A, 2-(2-N,N-diallylaminopropyl)-4-phenyl-1(2H)-isoquinolone maleate]	–	–	–	–	–	–	more than 2 hours	inhibit the ulcer generation caused by water-dipping restriction stress	time of maximum percent increase in blood flow [4]: 30 min; stomach mucous membrane blood flow increasing activity (in words) ([4]; 15, 30 and 45 minutes after administration): significance increasing activity on the stomach mucous membrane blood flow; percent increase in blood flow (maximum) ([4]; 30 minutes): about 50%; Percent Inhibition (stress ulcer [3]; 7 h water immersion at 23° C.): 62.2% and 75.5%; Ulcerous Index (stress ulcer [3]; 7 h water immersion at 23° C., 6 rats, mean ± SD): 10.5 ± 6.22 mm and 6.8 ± 3.19 mm; Percent Inhibition (aspirin-induced ulcer; 10 mg/kg i.d.): 29.41%; Ulcerous Index (aspirin-induced ulcer; 10 mg/kg i.d.): 42.28 ± 2.56 mm; Percent Inhibition (aspirin-induced ulcer; 25 mg/kg i.d.): 42.98%; Ulcerous Index (aspirin-induced ulcer; 25 mg/kg i.d.): 34.15 ± 4.37 mm; Percent Inhibition (aspirin-induced ulcer; 50 mg/kg i.d.): 57.52%; Ulcerous Index (aspirin-induced ulcer; 50 mg/kg i.d.): 25.44 ± 3.41 mm; inhibition of aspirin-induced ulcer (in words) (aspirin-induced ulcer; 10, 25, 50 mg/kg i.d.): inhibits the aspirin-induced ulcer at dose levels of 10, 25, 50 mg/kg, with dependency upon dose
CN/C(=N/CCSCc1nc[nH]c1C)NC#N [Cimetidine]	–	–	32.7%	52.6%	2.26 ± 0.85 mL	136.6 ± 74.19 μ Eq.	–	–	–
